This is an account of results in ChEMBL document CHEMBL5728723, “Pyrimidine compounds and pyrimido indole compounds and methods of use” (2021).

The target in assay [1] is Vascular endothelial growth factor receptor 1 (Homo sapiens, UniProt P17948). Briefly: (§1) Kinase Inhibition Assay: Table 9: Compounds 1 and 2, Section D., (see FIG. 4, bottom row, far right column) each inhibit VEGFR-2 and PDGFR-β for antiangiogenic effects and also inhibit human TS (hTS) for cytotoxic effects in single agents.12 The inhibitory potency of both these single agents against VEGFR-2, PDGFR-β, and hTS was better than or close to standards (Tables 9, 10).

In assay [2] the target is Epidermal growth factor receptor (Homo sapiens, UniProt P00533). The assay is described as §1.
Assay [3] has as its target Vascular endothelial growth factor receptor 2 (Homo sapiens, UniProt P35968). The assay is described as §1.
Assay [4] concerns the target Platelet-derived growth factor receptor beta (Homo sapiens, UniProt P09619). Described as §1.

Chain of Vascular endothelial growth factor receptor 1 (P17948 whole entry): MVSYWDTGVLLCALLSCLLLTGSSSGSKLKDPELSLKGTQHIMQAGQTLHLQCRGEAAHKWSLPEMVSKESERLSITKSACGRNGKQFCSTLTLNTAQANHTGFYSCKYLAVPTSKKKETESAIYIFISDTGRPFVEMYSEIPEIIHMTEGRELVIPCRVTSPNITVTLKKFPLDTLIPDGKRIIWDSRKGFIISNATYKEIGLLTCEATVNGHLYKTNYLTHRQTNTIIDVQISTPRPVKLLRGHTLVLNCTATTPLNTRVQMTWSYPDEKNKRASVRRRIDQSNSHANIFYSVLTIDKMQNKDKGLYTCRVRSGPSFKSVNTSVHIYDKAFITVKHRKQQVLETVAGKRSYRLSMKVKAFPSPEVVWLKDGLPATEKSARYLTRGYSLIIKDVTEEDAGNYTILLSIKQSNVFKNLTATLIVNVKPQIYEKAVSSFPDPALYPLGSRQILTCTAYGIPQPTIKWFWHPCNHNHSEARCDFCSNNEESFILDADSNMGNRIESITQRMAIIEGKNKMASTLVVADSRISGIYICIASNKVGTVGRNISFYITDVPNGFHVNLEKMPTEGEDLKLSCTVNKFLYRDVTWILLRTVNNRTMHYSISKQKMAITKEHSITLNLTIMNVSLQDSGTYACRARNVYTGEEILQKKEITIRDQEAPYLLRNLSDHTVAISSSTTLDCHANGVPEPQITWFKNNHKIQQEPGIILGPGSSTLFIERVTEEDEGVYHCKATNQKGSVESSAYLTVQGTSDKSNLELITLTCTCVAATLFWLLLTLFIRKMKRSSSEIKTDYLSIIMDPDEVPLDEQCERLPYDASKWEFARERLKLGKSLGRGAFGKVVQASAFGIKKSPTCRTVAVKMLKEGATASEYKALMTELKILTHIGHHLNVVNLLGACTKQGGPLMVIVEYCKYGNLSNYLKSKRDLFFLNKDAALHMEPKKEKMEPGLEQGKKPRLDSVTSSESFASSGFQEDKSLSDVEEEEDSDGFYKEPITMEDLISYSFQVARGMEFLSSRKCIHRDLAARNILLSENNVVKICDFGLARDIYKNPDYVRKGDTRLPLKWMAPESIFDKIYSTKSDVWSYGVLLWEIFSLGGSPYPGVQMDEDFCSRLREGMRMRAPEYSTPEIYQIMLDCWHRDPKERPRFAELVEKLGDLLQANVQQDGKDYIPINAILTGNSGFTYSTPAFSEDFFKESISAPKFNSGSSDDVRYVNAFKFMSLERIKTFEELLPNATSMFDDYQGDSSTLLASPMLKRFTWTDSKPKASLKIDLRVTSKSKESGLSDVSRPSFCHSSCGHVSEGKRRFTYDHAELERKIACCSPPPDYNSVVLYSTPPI
Chain of Platelet-derived growth factor receptor beta (P09619 whole entry): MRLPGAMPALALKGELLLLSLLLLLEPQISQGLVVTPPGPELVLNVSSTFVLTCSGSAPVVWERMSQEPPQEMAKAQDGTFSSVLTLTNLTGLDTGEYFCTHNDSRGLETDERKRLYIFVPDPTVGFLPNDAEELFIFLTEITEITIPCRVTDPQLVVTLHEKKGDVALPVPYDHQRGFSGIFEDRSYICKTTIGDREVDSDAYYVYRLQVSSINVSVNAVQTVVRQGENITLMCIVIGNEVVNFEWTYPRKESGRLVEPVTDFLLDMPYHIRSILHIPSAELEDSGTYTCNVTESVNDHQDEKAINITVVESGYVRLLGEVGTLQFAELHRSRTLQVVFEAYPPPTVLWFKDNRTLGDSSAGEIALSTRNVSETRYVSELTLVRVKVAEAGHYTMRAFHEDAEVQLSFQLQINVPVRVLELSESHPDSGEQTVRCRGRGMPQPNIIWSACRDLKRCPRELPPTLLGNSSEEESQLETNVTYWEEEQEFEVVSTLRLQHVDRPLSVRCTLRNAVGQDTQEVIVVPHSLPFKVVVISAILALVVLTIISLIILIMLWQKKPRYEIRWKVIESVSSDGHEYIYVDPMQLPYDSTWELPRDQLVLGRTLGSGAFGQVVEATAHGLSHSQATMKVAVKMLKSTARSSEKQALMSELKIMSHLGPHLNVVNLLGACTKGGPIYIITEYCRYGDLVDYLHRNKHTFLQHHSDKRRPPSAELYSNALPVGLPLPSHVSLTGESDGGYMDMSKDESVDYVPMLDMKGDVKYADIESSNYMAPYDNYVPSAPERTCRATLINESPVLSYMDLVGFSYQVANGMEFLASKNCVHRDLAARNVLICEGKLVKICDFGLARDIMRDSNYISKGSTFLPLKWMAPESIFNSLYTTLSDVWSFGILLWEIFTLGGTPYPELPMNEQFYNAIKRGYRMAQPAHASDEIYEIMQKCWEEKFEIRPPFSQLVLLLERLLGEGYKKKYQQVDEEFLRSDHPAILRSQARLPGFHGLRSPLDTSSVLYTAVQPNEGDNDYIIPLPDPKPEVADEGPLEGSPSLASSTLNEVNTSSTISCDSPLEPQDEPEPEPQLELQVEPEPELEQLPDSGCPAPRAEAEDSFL
Chain of Vascular endothelial growth factor receptor 2 (P35968 whole entry): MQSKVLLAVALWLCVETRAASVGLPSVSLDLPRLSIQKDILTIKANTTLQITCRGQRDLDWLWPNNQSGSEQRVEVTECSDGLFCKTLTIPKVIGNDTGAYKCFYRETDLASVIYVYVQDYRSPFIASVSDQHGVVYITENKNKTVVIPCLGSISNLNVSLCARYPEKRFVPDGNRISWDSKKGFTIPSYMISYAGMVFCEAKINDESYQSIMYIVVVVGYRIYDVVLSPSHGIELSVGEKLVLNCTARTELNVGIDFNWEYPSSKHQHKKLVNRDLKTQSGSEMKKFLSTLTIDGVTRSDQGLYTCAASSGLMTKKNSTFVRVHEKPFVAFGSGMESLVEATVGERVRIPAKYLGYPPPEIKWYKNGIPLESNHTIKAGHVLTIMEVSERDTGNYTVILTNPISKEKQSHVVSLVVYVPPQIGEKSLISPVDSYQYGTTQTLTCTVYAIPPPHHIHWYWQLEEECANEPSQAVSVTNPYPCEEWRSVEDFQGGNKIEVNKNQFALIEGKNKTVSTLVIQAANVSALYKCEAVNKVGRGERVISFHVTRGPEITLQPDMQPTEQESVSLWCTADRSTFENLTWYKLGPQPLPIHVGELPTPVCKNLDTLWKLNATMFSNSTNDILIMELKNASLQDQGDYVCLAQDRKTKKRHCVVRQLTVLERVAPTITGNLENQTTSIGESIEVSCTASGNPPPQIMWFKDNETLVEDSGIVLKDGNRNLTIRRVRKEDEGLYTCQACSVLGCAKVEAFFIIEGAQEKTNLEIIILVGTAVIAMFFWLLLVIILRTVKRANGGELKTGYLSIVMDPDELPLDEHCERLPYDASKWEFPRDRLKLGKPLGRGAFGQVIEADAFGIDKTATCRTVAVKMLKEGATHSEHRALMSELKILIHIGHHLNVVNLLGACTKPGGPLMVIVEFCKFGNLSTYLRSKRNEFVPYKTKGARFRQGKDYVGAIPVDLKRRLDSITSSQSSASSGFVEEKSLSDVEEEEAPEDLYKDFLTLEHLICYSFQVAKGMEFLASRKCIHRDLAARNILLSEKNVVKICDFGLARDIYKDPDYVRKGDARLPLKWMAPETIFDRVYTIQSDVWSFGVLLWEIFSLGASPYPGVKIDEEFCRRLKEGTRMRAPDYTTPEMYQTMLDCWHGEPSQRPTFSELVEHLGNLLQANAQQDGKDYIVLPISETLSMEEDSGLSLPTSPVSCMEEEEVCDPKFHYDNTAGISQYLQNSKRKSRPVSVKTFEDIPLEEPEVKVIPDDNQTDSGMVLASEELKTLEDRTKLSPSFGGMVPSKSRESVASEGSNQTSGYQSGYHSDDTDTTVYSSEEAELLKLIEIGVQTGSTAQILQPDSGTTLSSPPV
Chain of Epidermal growth factor receptor (P00533 whole entry): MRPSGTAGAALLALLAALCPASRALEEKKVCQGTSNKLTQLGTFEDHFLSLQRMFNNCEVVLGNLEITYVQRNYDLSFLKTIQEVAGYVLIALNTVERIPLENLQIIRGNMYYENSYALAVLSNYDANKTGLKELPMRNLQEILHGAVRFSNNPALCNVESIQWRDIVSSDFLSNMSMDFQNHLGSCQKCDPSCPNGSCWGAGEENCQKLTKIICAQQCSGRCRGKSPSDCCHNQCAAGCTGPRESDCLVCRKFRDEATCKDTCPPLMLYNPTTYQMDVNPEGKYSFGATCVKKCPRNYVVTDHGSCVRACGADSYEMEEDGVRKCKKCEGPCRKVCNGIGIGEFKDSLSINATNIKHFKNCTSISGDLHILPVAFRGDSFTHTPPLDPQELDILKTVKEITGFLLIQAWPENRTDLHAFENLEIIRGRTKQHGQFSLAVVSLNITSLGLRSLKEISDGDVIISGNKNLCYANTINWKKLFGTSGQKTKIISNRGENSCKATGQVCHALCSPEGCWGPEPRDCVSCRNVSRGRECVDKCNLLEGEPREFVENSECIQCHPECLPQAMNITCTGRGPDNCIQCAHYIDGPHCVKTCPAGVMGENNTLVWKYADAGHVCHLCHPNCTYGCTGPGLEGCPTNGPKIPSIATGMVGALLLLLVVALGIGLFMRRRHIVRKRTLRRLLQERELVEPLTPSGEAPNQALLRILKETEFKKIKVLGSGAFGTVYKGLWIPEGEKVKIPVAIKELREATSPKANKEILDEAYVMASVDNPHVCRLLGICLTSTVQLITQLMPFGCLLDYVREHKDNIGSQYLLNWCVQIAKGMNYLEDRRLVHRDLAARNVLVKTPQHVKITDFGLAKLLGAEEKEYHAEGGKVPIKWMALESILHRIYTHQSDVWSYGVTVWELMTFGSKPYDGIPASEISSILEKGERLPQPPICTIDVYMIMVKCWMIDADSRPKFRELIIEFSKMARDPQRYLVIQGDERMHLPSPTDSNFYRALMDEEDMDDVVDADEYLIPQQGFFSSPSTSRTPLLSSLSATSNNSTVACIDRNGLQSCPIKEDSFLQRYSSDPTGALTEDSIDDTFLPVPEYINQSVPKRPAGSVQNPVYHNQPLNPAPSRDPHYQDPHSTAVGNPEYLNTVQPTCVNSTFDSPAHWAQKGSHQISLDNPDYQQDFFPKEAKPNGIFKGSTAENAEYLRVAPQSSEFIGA

Regarding `COc1cccc(Sc2sc3nc(N)nc(N)c3c2C)c1`, the 50% inhibitory concentration (IC50) – broadly, the concentration that inhibits the measured activity by half – in assay [1] was 160 µM; in assay [2], 10.4 µM; in assay [3] it was 56.3 µM; in assay [4], 40.3 µM.
For `COc1ccc(Sc2sc3nc(N)nc(N)c3c2C)cc1OC`, the results for the IC50 in assay [1], in assay [3] and in assay [4] were 118 µM, 22.6 µM and 2.8 µM, respectively.
